According to PubChem BioAssay AID328 (DTP/NCI, 2004):
Toxic doses and inconclusive results are not listed.

Tested on: BDF1 mice, P388 leukemia ip, median survival T/C
Assay: NCI In Vivo Anticancer Drug Screen. Data for tumor model P388 Leukemia (intraperitoneal) in B6D2F1 (BDF1) mice
Conditions: endpoint: median survival time, higher = longer survival
How it was run: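 Survival ratio, drug arm over vehicle arm, in mice with a transplanted tumour.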

[1] = dose: 25.0 mg/kg/injection, schedule: Q01DX009 (ip), vehicle: Klucel (hydroxypropylcellulose) (HPC)
[2] = dose: 50.0 mg/kg/injection, schedule: Q01DX009 (ip), vehicle: Klucel (hydroxypropylcellulose) (HPC)
[3] = dose: 100.0 mg/kg/injection, schedule: Q01DX009 (ip), vehicle: Klucel (hydroxypropylcellulose) (HPC)
[4] = dose: 400.0 mg/kg/injection, schedule: Q04DX003 (ip), vehicle: saline
[5] = dose: 100.0 mg/kg/injection, schedule: Q04DX003 (ip), vehicle: saline with Tween-80
[6] = dose: 200.0 mg/kg/injection, schedule: Q04DX003 (ip), vehicle: saline with Tween-80
[7] = dose: 400.0 mg/kg/injection, schedule: Q04DX003 (ip), vehicle: saline with Tween-80

N[C@H](C(=O)O)[C@H]1ON=C(Cl)[C@@H]1O
T/C (dose: 0.5 mg/kg/injection, schedule: Q01DX009 (ip), vehicle: saline with Tween-80): 105 % of control
T/C (dose: 1.0 mg/kg/injection, schedule: Q01DX009 (ip), vehicle: saline with Tween-80): 105 % of control
T/C (dose: 2.0 mg/kg/injection, schedule: Q01DX009 (ip), vehicle: saline with Tween-80): 117 % of control
T/C (dose: 6.25 mg/kg/injection, schedule: Q01DX009 (ip), vehicle: saline): 160 % of control
T/C (dose: 8.0 mg/kg/injection, schedule: Q01DX009 (ip), vehicle: saline): 160 % of control
T/C (dose: 12.5 mg/kg/injection, schedule: Q01DX009 (ip), vehicle: Klucel (hydroxypropylcellulose) (HPC)): 239 % of control
T/C (dose: 12.5 mg/kg/injection, schedule: Q01DX009 (ip), vehicle: saline): 165 % of control
T/C (dose: 12.5 mg/kg/injection, schedule: Q04DX003 (ip), vehicle: saline): 96 % of control
T/C (dose: 16.0 mg/kg/injection, schedule: Q01DX009 (ip), vehicle: saline): 168 % of control
T/C [1]: 195 % of control
T/C (dose: 25.0 mg/kg/injection, schedule: Q01DX009 (ip), vehicle: saline): 195 % of control
T/C (dose: 25.0 mg/kg/injection, schedule: Q04DX003 (ip), vehicle: saline): 111 % of control
T/C (dose: 32.0 mg/kg/injection, schedule: Q01DX009 (ip), vehicle: saline): 167 % of control
T/C (dose: 44.0 mg/kg/injection, schedule: Q01DX009 (ip), vehicle: other): 158 % of control
T/C [2]: 188 % of control
T/C (dose: 50.0 mg/kg/injection, schedule: Q01DX009 (ip), vehicle: saline): 215 % of control
T/C (dose: 50.0 mg/kg/injection, schedule: Q04DX003 (ip), vehicle: saline): 111 % of control
T/C (dose: 64.0 mg/kg/injection, schedule: Q01DX009 (ip), vehicle: saline): 193 % of control
T/C [3]: 206 % of control
T/C (dose: 100.0 mg/kg/injection, schedule: Q01DX009 (ip), vehicle: other): 170 % of control
T/C (dose: 100.0 mg/kg/injection, schedule: Q01DX009 (ip), vehicle: saline): 110 % of control
T/C (dose: 128.0 mg/kg/injection, schedule: Q01DX009 (ip), vehicle: saline): 228 % of control
T/C (dose: 200.0 mg/kg/injection, schedule: Q01DX009 (ip), vehicle: saline): 90 % of control
T/C (dose: 250.0 mg/kg/injection, schedule: Q01DX009 (ip), vehicle: saline): 192 % of control
T/C (dose: 256.0 mg/kg/injection, schedule: Q01DX009 (ip), vehicle: saline): 270 % of control
T/C [4]: 238 % of control

O=C1c2sccc2-c2cccc3cccc1c23
T/C (dose: 50.0 mg/kg/injection, schedule: Q04DX003 (ip), vehicle: saline with Tween-80): 96 % of control
T/C [5]: 93 % of control
T/C [6]: 94 % of control
T/C [7]: 86 % of control

CSc1nc(NN(C)C)c2[nH]c(C)nc2n1
T/C (dose: 0.78 mg/kg/injection, schedule: Q01DX009 (ip), vehicle: saline with Tween-80): 97 % of control
T/C (dose: 1.56 mg/kg/injection, schedule: Q01DX009 (ip), vehicle: saline with Tween-80): 116 % of control
T/C (dose: 3.13 mg/kg/injection, schedule: Q01DX009 (ip), vehicle: saline with Tween-80): 111 % of control
T/C (dose: 6.25 mg/kg/injection, schedule: Q01DX009 (ip), vehicle: saline with Tween-80): 87 % of control

Cn1c([N+](=O)[O-])cnc1CSc1nc(-c2ccccc2)no1
T/C [5]: 93 % of control
T/C [6]: 117 % of control
T/C [7]: 93 % of control

NCCCC(=O)O
T/C (dose: 100.0 mg/kg/injection, schedule: Q01DX001 (ip), vehicle: saline): 100 % of control
T/C (dose: 100.0 mg/kg/injection, schedule: Q04DX003 (ip), vehicle: saline): 109 % of control
T/C (dose: 200.0 mg/kg/injection, schedule: Q01DX001 (ip), vehicle: saline): 100 % of control
T/C (dose: 200.0 mg/kg/injection, schedule: Q04DX003 (ip), vehicle: saline): 86 % of control
T/C (dose: 400.0 mg/kg/injection, schedule: Q01DX001 (ip), vehicle: saline): 90 % of control
T/C [4]: 118 % of control

COc1ccccc1NC(=O)c1ccc(Cl)cc1Cl
T/C [1]: 116 % of control
T/C [2]: 122 % of control
T/C [3]: 122 % of control
T/C (dose: 100.0 mg/kg/injection, schedule: Q04DX003 (ip), vehicle: Klucel (hydroxypropylcellulose) (HPC)): 100 % of control
T/C (dose: 200.0 mg/kg/injection, schedule: Q01DX009 (ip), vehicle: Klucel (hydroxypropylcellulose) (HPC)): 104 % of control
T/C (dose: 200.0 mg/kg/injection, schedule: Q04DX003 (ip), vehicle: Klucel (hydroxypropylcellulose) (HPC)): 95 % of control
T/C (dose: 400.0 mg/kg/injection, schedule: Q01DX009 (ip), vehicle: Klucel (hydroxypropylcellulose) (HPC)): 104 % of control
T/C (dose: 400.0 mg/kg/injection, schedule: Q04DX003 (ip), vehicle: Klucel (hydroxypropylcellulose) (HPC)): 104 % of control

Cc1cccnc1NS(=O)(=O)c1ccccc1
T/C [5]: 100 % of control
T/C [6]: 104 % of control
T/C [7]: 108 % of control

CN(C)c1ccc(/C=C/c2ccnc3c(O)ccc(O)c23)cc1
T/C (dose: 50.0 mg/kg/injection, schedule: Q01DX009 (ip), vehicle: saline with Tween-80): 112 % of control
T/C (dose: 100.0 mg/kg/injection, schedule: Q01DX009 (ip), vehicle: saline with Tween-80): 124 % of control
